Laboratory results published in ChEMBL document CHEMBL1131091, “Discovery of potent, achiral matrix metalloproteinase inhibitors” (J Med Chem, 1998).
pIC50: −log10 of the molar value.

Columns and labels:
[1] = molecular target: Stromelysin-1 (Homo sapiens, UniProt P08254); assay: Inhibition of Matrix metalloprotease-3
[2] = molecular target: T1, Interstitial collagenase (Homo sapiens, UniProt P03956); assay: Inhibition of Matrix metalloprotease-1
T1 sequence (P03956 whole entry): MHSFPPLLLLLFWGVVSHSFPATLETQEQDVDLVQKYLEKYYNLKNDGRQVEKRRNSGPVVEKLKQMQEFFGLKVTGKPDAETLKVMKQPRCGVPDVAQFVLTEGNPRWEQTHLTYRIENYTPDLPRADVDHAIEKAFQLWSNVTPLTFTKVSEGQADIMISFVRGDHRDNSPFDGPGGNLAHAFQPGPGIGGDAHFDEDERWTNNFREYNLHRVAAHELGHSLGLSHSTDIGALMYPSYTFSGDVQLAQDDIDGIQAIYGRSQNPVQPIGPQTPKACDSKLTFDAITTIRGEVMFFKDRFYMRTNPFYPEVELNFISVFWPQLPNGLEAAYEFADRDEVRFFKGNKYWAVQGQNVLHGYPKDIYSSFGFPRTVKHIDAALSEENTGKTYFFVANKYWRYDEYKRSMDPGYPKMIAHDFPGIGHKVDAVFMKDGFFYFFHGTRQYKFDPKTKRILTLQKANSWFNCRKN

[3] = molecular target: T2, Matrilysin (Homo sapiens, UniProt P09237); assay: Inhibition of Matrix metalloprotease-7
T2 sequence (P09237 whole entry): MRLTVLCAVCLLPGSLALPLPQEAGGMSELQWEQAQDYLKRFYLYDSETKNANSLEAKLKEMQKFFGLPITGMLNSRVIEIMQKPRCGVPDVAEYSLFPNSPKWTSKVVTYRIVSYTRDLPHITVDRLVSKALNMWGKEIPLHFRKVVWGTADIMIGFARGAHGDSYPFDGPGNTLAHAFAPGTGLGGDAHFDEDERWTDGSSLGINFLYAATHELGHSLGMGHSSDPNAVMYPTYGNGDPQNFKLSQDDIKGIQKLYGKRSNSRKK

[4] = molecular target: Matrix metalloproteinase-9 (Homo sapiens, UniProt P14780); assay: Inhibition of Matrix metalloprotease-9
Chain of Matrix metalloproteinase-9 (P14780 whole entry): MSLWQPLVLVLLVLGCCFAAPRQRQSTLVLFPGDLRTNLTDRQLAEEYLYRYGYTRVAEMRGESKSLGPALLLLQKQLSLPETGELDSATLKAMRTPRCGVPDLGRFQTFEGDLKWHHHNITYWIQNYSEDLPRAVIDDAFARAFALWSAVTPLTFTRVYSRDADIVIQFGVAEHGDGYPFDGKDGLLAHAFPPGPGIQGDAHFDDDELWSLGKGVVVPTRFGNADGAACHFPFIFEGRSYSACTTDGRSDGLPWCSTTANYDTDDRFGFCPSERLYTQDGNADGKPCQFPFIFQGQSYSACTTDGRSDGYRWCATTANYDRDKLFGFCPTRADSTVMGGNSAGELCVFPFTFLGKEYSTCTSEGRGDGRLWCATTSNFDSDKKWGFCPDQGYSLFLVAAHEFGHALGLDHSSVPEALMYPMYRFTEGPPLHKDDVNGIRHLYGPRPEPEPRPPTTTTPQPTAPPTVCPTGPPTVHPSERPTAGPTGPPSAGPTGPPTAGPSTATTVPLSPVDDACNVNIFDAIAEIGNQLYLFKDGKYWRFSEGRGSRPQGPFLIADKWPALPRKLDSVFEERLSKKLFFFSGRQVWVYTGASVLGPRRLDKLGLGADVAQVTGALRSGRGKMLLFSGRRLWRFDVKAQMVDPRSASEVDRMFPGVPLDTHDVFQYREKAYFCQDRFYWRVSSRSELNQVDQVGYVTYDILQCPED

Chain of Stromelysin-1 (P08254 whole entry): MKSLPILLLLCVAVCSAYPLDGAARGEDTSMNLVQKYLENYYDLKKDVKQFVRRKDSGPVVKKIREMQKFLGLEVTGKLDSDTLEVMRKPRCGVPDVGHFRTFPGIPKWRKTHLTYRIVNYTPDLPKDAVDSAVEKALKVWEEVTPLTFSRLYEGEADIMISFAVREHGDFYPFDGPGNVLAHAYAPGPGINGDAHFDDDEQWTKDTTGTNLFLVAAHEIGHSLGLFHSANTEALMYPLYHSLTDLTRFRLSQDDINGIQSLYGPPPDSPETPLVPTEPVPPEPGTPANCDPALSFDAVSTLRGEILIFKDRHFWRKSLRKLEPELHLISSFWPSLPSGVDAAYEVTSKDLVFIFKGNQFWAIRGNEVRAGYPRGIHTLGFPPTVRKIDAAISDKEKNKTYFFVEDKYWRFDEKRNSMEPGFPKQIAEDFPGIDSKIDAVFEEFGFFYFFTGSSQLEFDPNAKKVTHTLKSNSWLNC

pIC50 [1] | pIC50 [2] | pIC50 [3] | pIC50 [4] | Compound
5.89 | 6.08 | – | – | COc1ccc(S(=O)(=O)N2CCCCN(S(=O)(=O)c3ccc(OC)cc3)C2C(=O)NO)cc1
7.39 | 7.29 | 6.44 | 8.33 | COc1ccc(S(=O)(=O)N2CC(O)CN(S(=O)(=O)c3ccc(OC)cc3)C2C(=O)NO)cc1 (stereo not drawn)
5.97 | 5.33 | – | – | COc1ccc(S(=O)(=O)N2CCN(S(=O)(=O)c3ccc(OC)cc3)C2C(=O)NO)cc1
– | 7.62 | 7.52 | 8.57 | COc1ccc(S(=O)(=O)N2CC(C)(C)CN(S(=O)(=O)c3ccc(OC)cc3)C2C(=O)NO)cc1
7.71 | 7.10 | 6.91 | 7.81 | COc1ccc(S(=O)(=O)N2CC3(CN(S(=O)(=O)c4ccc(OC)cc4)C2C(=O)NO)SCCCS3)cc1
– | – | 6.97 | – | COc1ccc(S(=O)(=O)N(Cc2cccnc2)[C@@H](C(=O)NO)C(C)C)cc1 [CGS-27023A]
7.48 | 7.10 | 6.34 | 8.41 | COc1ccc(S(=O)(=O)N2CCCN(S(=O)(=O)c3ccc(OC)cc3)C2C(=O)NO)cc1
7.66 | – | 6.15 | 7.00 | CCCCOc1ccc(S(=O)(=O)N2CC(C)(C)CN(S(=O)(=O)c3ccc(OCCCC)cc3)C2C(=O)NO)cc1
